From ChEMBL document CHEMBL1141107, “A novel series of non-carboxylic acid, non-hydantoin inhibitors of aldose reductase with potent oral activity in diabetic rat models: 6-(5-chloro-3-methylbenzofuran-2-sulfonyl)-2H-pyridazin-3-one and congeners” (J Med Chem, 2005)
Each block holds one molecule with its values, some of them ahead of it.

Legend:
Rattus norvegicus [1] = organism: Rattus norvegicus; assay: Inhibition of sorbitol accumulation in diabetic rat by acute test; format: functional
Rattus norvegicus [2] = organism: Rattus norvegicus; assay: Inhibition of sorbitol accumulation in diabetic rat by chronic test; format: functional
[3] = target: Aldo-keto reductase family 1 member B1 (Homo sapiens, UniProt P15121); assay: In vitro inhibitroy concentration against Aldose reductase incubated at 24 degree C for 15 minutes in pH 7.0
Rattus norvegicus [4] = assay: Inhibition of sorbitol accumulation in diabetic rat by chronic test does at 20 mg/kg; format: functional
Rattus norvegicus [5] = assay: Inhibition of sorbitol accumulation in diabetic rat by acute test dosed at 30 mg/kg; format: functional
Rattus norvegicus [6] = assay: Inhibition of fructose accumulation in diabetic rat after oral gavage administration, pH 4.5 by chronic test dosed at 20 mg/kg; format: functional
Rattus norvegicus [7] = assay: Inhibition of fructose accumulation in diabetic rat after oral gavage administration incubated at RT for 60 minutes in pH 4.5 by acute test dosed at 20 mg/kg; format: functional; conditions: 1 h
Rattus norvegicus [8] = assay: Inhibition of sorbitol accumulation in diabetic rat by acute test dosed at 20 mg/kg; format: functional
Rattus norvegicus [9] = assay: Inhibition of fructose accumulation in diabetic rat after oral gavage administration incubated at RT for 60 minutes in pH 4.5 by acute test dosed at 5 mg/kg; format: functional; conditions: 1 h
Rattus norvegicus [10] = assay: Inhibition of fructose accumulation in diabetic rat after oral gavage administration, pH 4.5 by chronic test dosed at 5 mg/kg; format: functional
Rattus norvegicus [11] = assay: Inhibition of sorbitol accumulation in diabetic rat by chronic test dosed at 20 mg/kg; format: functional
Rattus norvegicus [12] = assay: Inhibition of sorbitol accumulation in diabetic rat by chronic test dosed at 5 mg/kg; format: functional
Rattus norvegicus [13] = assay: Inhibition of sorbitol accumulation in diabetic rat by acute test dosed at 5 mg/kg; format: functional
Rattus norvegicus [14] = assay: Inhibition of fructose accumulation in diabetic rat after oral gavage administration incubated at RT for 60 minutes in pH 4.5 by chronic test 30 mg/kg; conditions: 1 h
Rattus norvegicus [15] = assay: Inhibition of fructose accumulation in diabetic rat after oral gavage administration incubated at RT for 60 minutes in pH 4.5 by chronic test 10 mg/kg; conditions: 1 h
Rattus norvegicus [16] = assay: Inhibition of fructose accumulation in diabetic rat after oral gavage administration, pH 4.5 by chronic test dosed at 3 mg/kg; format: functional
Rattus norvegicus [17] = assay: Inhibition of fructose accumulation in diabetic rat after oral gavage administration incubated at RT for 60 minutes in pH 4.5 by acute test dosed at 10 mg/kg; format: functional; conditions: 1 h
Rattus norvegicus [18] = assay: Inhibition of sorbitol accumulation in diabetic rat by acute test dosed at 10 mg/kg; format: functional
Rattus norvegicus [19] = assay: Inhibition of fructose accumulation in diabetic rat after oral gavage administration, pH 4.5 by chronic test dosed at 10 mg/kg; format: functional
Rattus norvegicus [20] = assay: Dose required for fructose accumulation in diabetic rat after oral gavage administration incubated at RT for 60 minutes in pH 4.5 by acute test; format: functional
Rattus norvegicus [21] = assay: Inhibition of fructose accumulation in diabetic rat after oral gavage administration, pH 4.5 by chronic test dosed at 1 mg/kg; format: functional
Rattus norvegicus [22] = assay: Inhibition of fructose accumulation in diabetic rat after oral gavage administration incubated at RT for 60 minutes in pH 4.5 by acute test dosed at 3 mg/kg; format: functional; conditions: 1 h
Rattus norvegicus [23] = assay: Inhibition of sorbitol accumulation in diabetic rat by chronic test dosed at 1 mg/kg; format: functional
Rattus norvegicus [24] = assay: Inhibition of sorbitol accumulation in diabetic rat by chronic test dosed at 10 mg/kg; format: functional
Rattus norvegicus [25] = assay: Inhibition of sorbitol accumulation in diabetic rat by chronic test dosed at 3 mg/kg; format: functional
Rattus norvegicus [26] = organism: Rattus norvegicus; assay: Dose required for inhibition of sorbitol accumulation in diabetic rat by acute test; format: functional
Rattus norvegicus [27] = assay: Inhibition of sorbitol accumulation in diabetic rat by acute test dosed at 1 mg/kg; format: functional
Rattus norvegicus [28] = organism: Rattus norvegicus; assay: Dose required for sorbitol accumulation in diabetic rat by chronic test; format: functional
Rattus norvegicus [29] = assay: Inhibition of sorbitol accumulation in diabetic rat by acute test dosed at 3 mg/kg; format: functional
Rattus norvegicus [30] = assay: Inhibition of fructose accumulation in diabetic rat after oral gavage administration incubated at RT for 60 minutes in pH 4.5 by acute test dosed at 1 mg/kg; format: functional; conditions: 1 h
Rattus norvegicus [31] = assay: Inhibition of sorbitol accumulation in diabetic rat by acute test dosed at 60 mg/kg; format: functional
[32] = Maximum plasma concentration in rat was determined; format: ADME, organism-based
Rattus norvegicus [33] = assay: Dose required for fructose accumulation in diabetic rat after oral gavage administration incubated at RT for 60 minutes in pH 4.5 by acute test; conditions: 1 h
Rattus norvegicus [34] = organism: Rattus norvegicus; assay: Dose required for sorbitol accumulation in diabetic rat by chronic test
Rattus norvegicus [35] = assay: Dose required for fructose accumulation in diabetic rat after oral gavage administration, pH 4.5 by chronic test; format: functional
Rattus norvegicus [36] = assay: Inhibition of fructose accumulation in diabetic rat after oral gavage administration incubated at RT for 60 minutes in pH 4.5 by acute test; dosed at 20 mg/kg; format: functional; conditions: 1 h
Rattus norvegicus [37] = assay: Inhibition of sorbitol accumulation in diabetic rat by acute test; dosed at 20 mg/kg; format: functional
Rattus norvegicus [38] = assay: Inhibition of sorbitol accumulation in diabetic rat by acute test; dosed at 10 mg/kg; format: functional
Rattus norvegicus [39] = assay: Inhibition of fructose accumulation in diabetic rat after oral gavage administration incubated at RT for 60 minutes in pH 4.5 by acute test; dosed at 10 mg/kg; format: functional; conditions: 1 h
Rattus norvegicus [40] = assay: Inhibition of fructose accumulation in diabetic rat after oral gavage administration, pH 4.5 by chronic test; format: functional
Rattus norvegicus [41] = assay: Inhibition of fructose accumulation in diabetic rat after oral gavage administration incubated at RT for 60 minutes in pH 4.5 by acute test dosed at 25 mg/kg; format: functional; conditions: 1 h
Rattus norvegicus [42] = assay: Inhibition of fructose accumulation in diabetic rat after oral gavage administration incubated at RT for 60 minutes in pH 4.5 by acute test dosed at 50 mg/kg; format: functional; conditions: 1 h
Rattus norvegicus [43] = assay: Inhibition of sorbitol accumulation in diabetic rat by acute test dosed at 25 mg/kg; format: functional
Rattus norvegicus [44] = assay: Inhibition of sorbitol accumulation in diabetic rat by acute test dosed at 50 mg/kg; format: functional
Rattus norvegicus [45] = assay: Dose required for fructose accumulation in diabetic rat after oral gavage administration incubated at RT for 60 minutes in pH 4.5 by acute; format: functional

Structure (SMILES): O=S(=O)(c1ccccc1)c1ccc(S(=O)(=O)c2ccccc2)nn1
Inhibition (Rattus norvegicus [1]): 58%
Inhibition (Rattus norvegicus [2]): 50%

Structure (SMILES): O=S(=O)(c1cc(Cl)cc(Cl)c1)c1ccc(O)nn1
inhibition in vivo at 20 mg/kg (Rattus norvegicus [6]): 38%
inhibition in vivo at 20 mg/kg (Rattus norvegicus [7]): 49%
inhibition in vivo at 20 mg/kg (Rattus norvegicus [8]): 91%
inhibition in vivo at 5 mg/kg (Rattus norvegicus [9]): 32%
inhibition in vivo at 5 mg/kg (Rattus norvegicus [10]): 30%
inhibition in vivo at 20 mg/kg (Rattus norvegicus [11]): 73%
inhibition in vivo at 5 mg/kg (Rattus norvegicus [12]): 63%
inhibition in vivo at 5 mg/kg (Rattus norvegicus [13]): 68%

Structure (SMILES): O=c1ccc(S(=O)(=O)c2cccc(F)c2F)n[nH]1
IC50 [3]: 390 nM
inhibition in vivo at 30 mg/kg (Rattus norvegicus [14]): 81%
inhibition in vivo at 10 mg/kg (Rattus norvegicus [15]): 50%

Structure (SMILES): O=c1ccc(S(=O)(=O)Cc2ccccc2)n[nH]1
inhibition in vivo at 60 mg/kg (Rattus norvegicus [31]): 73%
IC50 [3]: 600 nM

Structure (SMILES): O=S(=O)(c1ccccc1)c1ccc(O)nn1
inhibition in vivo at 10 mg/kg (Rattus norvegicus [17]): 14%
inhibition in vivo at 10 mg/kg (Rattus norvegicus [18]): 40%
inhibition in vivo at 25 mg/kg (Rattus norvegicus [41]): 49%
ED50 (Rattus norvegicus [26]): 15 mg/kg
inhibition in vivo at 50 mg/kg (Rattus norvegicus [42]): 74%
inhibition in vivo at 25 mg/kg (Rattus norvegicus [43]): 73%
inhibition in vivo at 50 mg/kg (Rattus norvegicus [44]): 95%
ED50 (Rattus norvegicus [45]): 25 mg/kg

The next lines start with results.

IC50 [3]: 50 nM
Structure (SMILES): O=c1ccc(S(=O)(=O)c2c(Cl)cccc2Cl)n[nH]1
inhibition in vivo at 20 mg/kg (Rattus norvegicus [4]): 75%
inhibition in vivo at 30 mg/kg (Rattus norvegicus [5]): 81%

IC50 [3]: 3 nM
Structure (SMILES): Cc1c(S(=O)(=O)c2ccc(O)nn2)oc2ccc(F)cc12
inhibition in vivo at 3 mg/kg (Rattus norvegicus [16]): 64%
inhibition in vivo at 10 mg/kg (Rattus norvegicus [17]): 62%
inhibition in vivo at 10 mg/kg (Rattus norvegicus [18]): 84%
inhibition in vivo at 10 mg/kg (Rattus norvegicus [19]): 90%
ED50 (Rattus norvegicus [20]): 5.8 mg/kg
inhibition in vivo at 1 mg/kg (Rattus norvegicus [21]): 17%
inhibition in vivo at 3 mg/kg (Rattus norvegicus [22]): 42%
inhibition in vivo at 1 mg/kg (Rattus norvegicus [23]): 52%
inhibition in vivo at 10 mg/kg (Rattus norvegicus [24]): 100%
inhibition in vivo at 3 mg/kg (Rattus norvegicus [25]): 86%
ED50 (Rattus norvegicus [26]): 1.2 mg/kg
inhibition in vivo at 1 mg/kg (Rattus norvegicus [27]): 47%
ED50 (Rattus norvegicus [28]): 1 mg/kg
inhibition in vivo at 3 mg/kg (Rattus norvegicus [29]): 66%
inhibition in vivo at 1 mg/kg (Rattus norvegicus [30]): 11%

Cmax [32]: 9000 ng/mL
IC50 [3]: 1 nM
Structure (SMILES): Cc1c(S(=O)(=O)c2ccc(=O)[nH]n2)oc2ccc(Cl)cc12
ED50 (Rattus norvegicus [20]): 0.8 mg/kg
ED50 (Rattus norvegicus [26]): 0.2 mg/kg

IC50 [3]: 5 nM
Structure (SMILES): Cc1c(S(=O)(=O)c2ccc(O)nn2)oc2ccc(C(F)(F)F)cc12
inhibition in vivo at 3 mg/kg (Rattus norvegicus [16]): 81%
inhibition in vivo at 10 mg/kg (Rattus norvegicus [18]): 101%
inhibition in vivo at 10 mg/kg (Rattus norvegicus [19]): 100%
inhibition in vivo at 1 mg/kg (Rattus norvegicus [21]): 54%
inhibition in vivo at 3 mg/kg (Rattus norvegicus [22]): 79%
inhibition in vivo at 1 mg/kg (Rattus norvegicus [23]): 75%
inhibition in vivo at 10 mg/kg (Rattus norvegicus [24]): 102%
ED50 (Rattus norvegicus [33]): 2 mg/kg
ED50 (Rattus norvegicus [34]): < 1 mg/kg
inhibition in vivo at 3 mg/kg (Rattus norvegicus [25]): 95%
ED50 (Rattus norvegicus [26]): 1.3 mg/kg
inhibition in vivo at 1 mg/kg (Rattus norvegicus [27]): 43%
inhibition in vivo at 3 mg/kg (Rattus norvegicus [29]): 91%
ED50 (Rattus norvegicus [35]): 1 mg/kg

IC50 [3]: 73 nM
Structure (SMILES): O=c1ccc(S(=O)(=O)c2cc(Cl)ccc2Cl)n[nH]1
inhibition in vivo at 20 mg/kg (Rattus norvegicus [36]): 67%
inhibition in vivo at 20 mg/kg (Rattus norvegicus [37]): 79%
inhibition in vivo at 10 mg/kg (Rattus norvegicus [38]): 65%
inhibition in vivo at 10 mg/kg (Rattus norvegicus [39]): 36%

IC50 [3]: 92 nM
Structure (SMILES): CC(C)c1c(S(=O)(=O)c2ccc(O)nn2)oc2ccc(Cl)cc12
Inhibition (Rattus norvegicus [2]): 48%
Inhibition (Rattus norvegicus [40]): 14%
